Measurements from ChEMBL document CHEMBL3124853, “Synthesis and anti-Candidal activity of N-(4-aryl/cyclohexyl)-2-(pyridine-4-yl carbonyl) hydrazinecarbothioamide” (Bioorg Med Chem Lett, 2014).
pIC50: −log10 of the molar value. Values after ≈ are worked out from the molar mass of the structure shown.

Tests used:
A549 = test: Cytotoxicity against human A549 cells after 48 hrs by MTT assay; type: cell-based; conditions: A549, 48 h
[1] = Cytotoxicity against human HT1080 cells after 48 hrs by MTT assay; type: cell-based; conditions: HT-1080, 48 h
HepG2 = test: Cytotoxicity against human HepG2 cells after 48 hrs by MTT assay; type: cell-based; conditions: HepG2, 48 h
[2] = Cytotoxicity against human MCF10A cells after 48 hrs by WST1 assay; type: cell-based; conditions: MCF-10A
Candida [3] = test: Antifungal activity against Candida sp. clinical isolate 12810 derived from blood by microbroth dilution method; type: functional
Candida [4] = test: Antifungal activity against Candida sp. clinical isolate 12485 derived from urine by microbroth dilution method; type: functional; conditions: clinical isolate 12485, Urine
Candida [5] = test: Antifungal activity against Candida sp. clinical isolate 12341 derived from urine by microbroth dilution method; type: functional; conditions: clinical isolate 12341, Urine
Candida [6] = test: Antifungal activity against Candida sp. clinical isolate 300 derived from urine by microbroth dilution method; type: functional; conditions: clinical isolate 300, Urine
Candida [7] = test: Antifungal activity against Candida sp. clinical isolate 178 derived from high vaginal swabs by microbroth dilution method; type: functional
Candida [8] = test: Antifungal activity against Candida sp. clinical isolate 11972 derived from high vaginal swabs by microbroth dilution method; type: functional
Candida albicans = test: Antifungal activity against Candida albicans ATCC 66027 by microbroth dilution method; type: functional
Candida [9] = test: Antifungal activity against Candida sp. clinical isolate 13184 derived from high vaginal swabs by microbroth dilution method; type: functional
Candida parapsilosis = test: Antifungal activity against Candida parapsilosis ATCC 22019 by microbroth dilution method; type: functional; conditions: Lodderomyces parapsilosis
Candida tropicalis = test: Antifungal activity against Candida tropicalis ATCC 66029 by microbroth dilution method; type: functional

SMILES | IC50 (A549) [µg/mL] | IC50 [1] [µg/mL] | IC50 (HepG2) [µg/mL] | pIC50 [2] | MIC (Candida [3]) [µg/mL] | MIC (Candida [4]) [µg/mL] | MIC (Candida [5]) [µg/mL] | MIC (Candida [6]) [µg/mL] | MIC (Candida [7]) [µg/mL] | MIC (Candida [8]) [µg/mL] | MIC (Candida albicans) [µg/mL] | MIC (Candida [9]) [µg/mL] | MIC (Candida parapsilosis) [µg/mL] | MIC (Candida tropicalis) [µg/mL]
CCC(C)n1ncn(-c2ccc(N3CCN(c4ccc(OCC5COC(Cn6cncn6)(c6ccc(Cl)cc6Cl)O5)cc4)CC3)cc2)c1=O (configuration not stated) [ITRACONAZOLE] | 182 (≈ 258 µM) | 202 (≈ 286 µM) | 142 (≈ 201 µM) | < 3.52 | 0.25 (≈ 0.354 µM) | 0.04 (≈ 0.0567 µM) | 0.09 (≈ 0.128 µM) | 0.09 (≈ 0.128 µM) | 0.19 (≈ 0.269 µM) | 0.02 (≈ 0.0283 µM) | 1.56 (≈ 2.21 µM) | 0.39 (≈ 0.553 µM) | 0.04 (≈ 0.0567 µM) | 0.19 (≈ 0.269 µM)
COc1ccc(NC(=S)NNC(=O)c2ccncc2)cc1 |  |  |  | 4.32 | > 50 | > 50 | > 50 | > 50 | > 50 | > 50 | > 50 | > 50 | > 50 | > 50
Cc1ccc(NC(=S)NNC(=O)c2ccncc2)cc1 |  |  |  | 3.64 | > 50 | > 50 | > 50 | > 50 | > 50 | > 50 | > 50 | > 50 | > 50 | > 50
Cc1cccc(C)c1NC(=S)NNC(=O)c1ccncc1 |  |  |  | < 3.52 | 1.6 (≈ 5.33 µM) | 6.25 (≈ 20.8 µM) | 6.25 (≈ 20.8 µM) | 0.78 (≈ 2.6 µM) | 6.25 (≈ 20.8 µM) | 12.5 (≈ 41.6 µM) | 0.78 (≈ 2.6 µM) | 6.25 (≈ 20.8 µM) | 0.78 (≈ 2.6 µM) | 0.78 (≈ 2.6 µM)
COc1ccccc1N=C(S)NNC(=O)c1ccncc1 |  |  |  | < 3.52 | > 50 | > 50 | > 50 | > 50 | > 50 | > 50 | > 50 | > 50 | > 50 | > 50
O=C(NNC(=S)Nc1ccccc1[N+](=O)[O-])c1ccncc1 | 813 (≈ 2560 µM) | 833 (≈ 2630 µM) | 410 (≈ 1290 µM) | < 3.52 | 0.39 (≈ 1.23 µM) | 0.39 (≈ 1.23 µM) | 6.25 (≈ 19.7 µM) | 1.6 (≈ 5.04 µM) | 0.39 (≈ 1.23 µM) | 6.25 (≈ 19.7 µM) | 1.6 (≈ 5.04 µM) | 0.78 (≈ 2.46 µM) | 6.25 (≈ 19.7 µM) | 0.19 (≈ 0.599 µM)
O=C(NNC(=S)Nc1ccccc1)c1ccncc1 | 2040 (≈ 7500 µM) | 684 (≈ 2510 µM) | 716 (≈ 2630 µM) | < 3.52 | 0.78 (≈ 2.86 µM) | 1.6 (≈ 5.88 µM) | 1.6 (≈ 5.88 µM) | 0.19 (≈ 0.698 µM) | 6.25 (≈ 22.9 µM) | 6.25 (≈ 22.9 µM) | 0.19 (≈ 0.698 µM) | 12.5 (≈ 45.9 µM) | 0.39 (≈ 1.43 µM) | 1.6 (≈ 5.88 µM)
O=C(NNC(=S)Nc1ccc(Cl)cc1)c1ccncc1 | 410 (≈ 1340 µM) | 540 (≈ 1760 µM) | 1200 (≈ 3910 µM) | < 3.52 | 0.09 (≈ 0.293 µM) | 0.39 (≈ 1.27 µM) | 0.19 (≈ 0.619 µM) | 0.39 (≈ 1.27 µM) | 0.19 (≈ 0.619 µM) | 0.19 (≈ 0.619 µM) | 0.09 (≈ 0.293 µM) | 0.78 (≈ 2.54 µM) | 0.19 (≈ 0.619 µM) | 0.19 (≈ 0.619 µM)
Cc1ccccc1N=C(S)NNC(=O)c1ccncc1 |  |  |  | < 3.52 | > 50 | > 50 | > 50 | > 50 | > 50 | > 50 | > 50 | > 50 | > 50 | > 50
Cc1cccc(NC(=S)NNC(=O)c2ccncc2)c1 |  |  |  | < 3.52 | > 50 | > 50 | > 50 | > 50 | > 50 | > 50 | > 50 | > 50 | > 50 | > 50
COc1cccc(NC(=S)NNC(=O)c2ccncc2)c1 |  |  |  | < 3.52 | > 50 | > 50 | > 50 | > 50 | > 50 | > 50 | > 50 | > 50 | > 50 | > 50
O=C(NNC(=S)Nc1ccc([N+](=O)[O-])cc1)c1ccncc1 |  |  |  | < 3.52 | > 50 | > 50 | > 50 | > 50 | > 50 | > 50 | > 50 | > 50 | > 50 | > 50
O=C(NNC(=S)NC1CCCCC1)c1ccncc1 |  |  |  | < 3.52 | > 50 | > 50 | > 50 | > 50 | > 50 | > 50 | > 50 | > 50 | > 50 | > 50
O=C(NNC(=S)Nc1ccc(I)cc1)c1ccncc1 |  |  |  | < 3.52 | 0.39 (≈ 0.979 µM) | 0.78 (≈ 1.96 µM) | 0.19 (≈ 0.477 µM) | 1.6 (≈ 4.02 µM) | 0.09 (≈ 0.226 µM) | 0.19 (≈ 0.477 µM) | 0.39 (≈ 0.979 µM) | 1.6 (≈ 4.02 µM) | 0.19 (≈ 0.477 µM) | 0.19 (≈ 0.477 µM)
O=C(NNC(=S)Nc1cccc(Cl)c1)c1ccncc1 |  |  |  | < 3.52 | 0.09 (≈ 0.293 µM) | 6.25 (≈ 20.4 µM) | 0.78 (≈ 2.54 µM) | 0.78 (≈ 2.54 µM) | 6.25 (≈ 20.4 µM) | 0.39 (≈ 1.27 µM) | 0.19 (≈ 0.619 µM) | 6.25 (≈ 20.4 µM) | 0.78 (≈ 2.54 µM) | 1.6 (≈ 5.22 µM)
CCc1cccc(NC(=S)NNC(=O)c2ccncc2)c1 |  |  |  | < 3.52 | > 50 | > 50 | > 50 | > 50 | > 50 | > 50 | > 50 | > 50 | > 50 | > 50
O=C(O)c1cn(C2CC2)c2cc(N3CCNCC3)c(F)cc2c1=O [CIPROFLOXACIN] |  |  |  | < 3.52 |  |  |  |  |  |  |  |  |  | 
O=C(NNC(=S)Nc1ccc(S(=O)(=O)Nc2ncccn2)cc1)c1ccncc1 |  |  |  | < 3.52 | > 50 | > 50 | > 50 | > 50 | > 50 | > 50 | > 50 | > 50 | > 50 | > 50
CCOc1ccc(NC(=S)NNC(=O)c2ccncc2)cc1 |  |  |  | < 3.52 | > 50 | > 50 | > 50 | > 50 | > 50 | > 50 | > 50 | > 50 | > 50 | > 50
CC(=O)Nc1ccc(NC(=S)NNC(=O)c2ccncc2)cc1 |  |  |  | < 3.52 | 1.6 (≈ 4.86 µM) | 1.6 (≈ 4.86 µM) | 1.6 (≈ 4.86 µM) | 1.6 (≈ 4.86 µM) | 0.19 (≈ 0.577 µM) | 0.78 (≈ 2.37 µM) | 0.39 (≈ 1.18 µM) | 1.6 (≈ 4.86 µM) | 0.19 (≈ 0.577 µM) | 0.19 (≈ 0.577 µM)
